In PMC8664950, “Potent but transient immunosuppression of T-cells is a general feature of CD71^+ erythroid cells” (Communications Biology, 2021):

Key:
ARG1 = target: T1, ARG1 (Homo sapiens, UniProt P05089); assay: colorimetric urea-production arginase assay with recombinant enzyme; type: biochemical
T1 construct: recombinant human ARG1 (E. coli)
T1 sequence (P05089 1-322): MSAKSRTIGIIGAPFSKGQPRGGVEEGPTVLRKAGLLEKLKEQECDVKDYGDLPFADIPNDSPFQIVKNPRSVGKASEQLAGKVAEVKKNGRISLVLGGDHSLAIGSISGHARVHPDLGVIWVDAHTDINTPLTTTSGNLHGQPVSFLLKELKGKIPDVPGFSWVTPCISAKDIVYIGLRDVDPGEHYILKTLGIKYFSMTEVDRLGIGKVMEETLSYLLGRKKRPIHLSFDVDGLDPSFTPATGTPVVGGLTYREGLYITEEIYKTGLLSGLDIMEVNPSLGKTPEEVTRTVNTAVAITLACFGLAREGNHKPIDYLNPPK

ARG2 = target: T2, ARG2 (Homo sapiens, UniProt P78540); assay: as above; type: biochemical
T2 construct: recombinant human ARG2 (E. coli)
T2 sequence (P78540 23-354): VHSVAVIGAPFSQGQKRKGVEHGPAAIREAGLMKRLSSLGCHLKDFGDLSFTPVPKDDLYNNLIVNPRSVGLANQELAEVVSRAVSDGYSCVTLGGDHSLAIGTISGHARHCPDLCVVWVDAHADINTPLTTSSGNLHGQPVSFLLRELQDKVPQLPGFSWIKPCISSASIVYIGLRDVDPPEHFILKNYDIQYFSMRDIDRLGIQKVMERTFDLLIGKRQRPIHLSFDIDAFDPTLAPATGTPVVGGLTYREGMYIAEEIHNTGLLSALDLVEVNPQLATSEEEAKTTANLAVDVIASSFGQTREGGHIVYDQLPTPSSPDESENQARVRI

Q: NNc1ccccc1 [PHZ, phenylhydrazine] was tested. Which IC50 (ARG1) did it give?
A: 1020 µM

Q: What about the IC50 (ARG2) of the same compound?
A: 61 µM
